Laboratory results: ChEMBL document CHEMBL6074685, “Design, synthesis and biological evaluation of novel diaryl-substituted fused nitrogen heterocycles as tubulin polymerization inhibitors to overcome multidrug resistance in vitro and in vivo” (Eur J Med Chem, 2025)
The source made the active and inactive calls. The calls are words filed in the database; no cut-off is given here.

Tests used:
A549/TR [1] = experiment: Effect on P-gp protein level in human A549/T cell at 62.5 to 500 nM measured at 12 hrs by immunoblotting analysis; format: functional, cell-based; conditions: dose 62.5-500 nM
A549/TR [2] = experiment: Induction of apoptosis in human A549/T cell at 62.5 nM incubated for 48 hrs by V-FITC/PI staining based flow cytometry analysis relative to control; format: functional
[3] = Toxicity in BALB/c mouse implanted with human A549/T cell assessed as kidney damage at 15 to 30 mg/kg, ip administered every 2 days by H and E staining based analysis; format: organism-based; conditions: in vivo, 48 h, dose 15-30 mg/kg, time 2 day
[4] = Toxicity in BALB/c mouse implanted with human A549/T cell assessed as RBC count at 30 mg/kg, ip administered every 2 days and measured after 2 weeks (reference value: 7.92 10^12/L); format: organism-based; conditions: in vivo, 336 h
[5] = Metabolic stability in human liver microsome assessed as parent compound remaining measured upto 50 mins by LC-MS/MS analysis; format: ADME; conditions: microsomes
A549/TR [6] = experiment: Inhibition of colony formation in human A549/T cell incubated for 48 hrs by crystal violet staining based analysis; format: functional; conditions: dose 0.1-0.5 µM
NCI-H1299 = experiment: Antiproliferative activity against human NCI-H1299 cells assessed as cell growth inhibition incubated for 48 hrs by MTT assay; format: functional, cell-based; conditions: NCI-H1299, 48 h
A549/TR [7] = experiment: Effect on p-gp expression in human A549/T cell by immunoblotting analysis; format: functional, cell-based
[8] = Toxicity in BALB/c mouse implanted with human A549/T cell assessed as lymphocyte count at 15 mg/kg, ip administered every 2 days and measured after 2 weeks (reference value: 56%); format: organism-based; conditions: in vivo, 336 h
[9] = Toxicity in BALB/c mouse implanted with human A549/T cell assessed as lymphocyte count at 30 mg/kg, ip administered every 2 days and measured after 2 weeks (reference value: […]); format: organism-based; conditions: in vivo, 336 h
[10] = Metabolic stability in human liver microsome assessed as intrinsic clearance measured upto 50 mins by LC-MS/MS analysis; format: ADME; conditions: liver microsomes, read-out: CLH
A549 [11] = experiment: Antiproliferative activity against human A549 cells assessed as cell growth inhibition incubated for 48 hrs by MTT assay; conditions: A549, 48 h
[12] = Toxicity in BALB/c mouse implanted with human A549/T cell assessed as lymphocyte count at 15 mg/kg, ip administered every 2 days and measured after 2 weeks (reference value: […]); format: organism-based; conditions: in vivo, 336 h
[13] = Toxicity in BALB/c mouse implanted with human A549/T cell assessed as monocyte count at 30 mg/kg, ip administered every 2 days and measured after 2 weeks (reference value: 30.6 %); format: organism-based; conditions: in vivo, 336 h
[14] = Toxicity in BALB/c mouse implanted with human A549/T cell assessed as monocyte count at 15 mg/kg, ip administered every 2 days and measured after 2 weeks (reference value: 30.6 %); format: organism-based; conditions: in vivo, 336 h
[15] = Toxicity in BALB/c mouse implanted with human A549/T cell assessed as lymphocyte count at 30 mg/kg, ip administered every 2 days and measured after 2 weeks (reference value: 56%); format: organism-based; conditions: in vivo, 336 h
[16] = Cytotoxicity against human MCF-10A cells assessed as inhibition of cell growth at 100 nM incubated for 48 hrs by MTT assay relative to control; format: toxicity, cell-based
[17] = Toxicity in BALB/c mouse implanted with human A549/T cell assessed as lung damage at 15 to 30 mg/kg, ip administered every 2 days by H and E staining based analysis; format: organism-based; conditions: in vivo, 48 h, dose 15-30 mg/kg, time 2 day
A549 [18] = experiment: Induction of cell cycle arrest in human A549 cells assessed as accumulation of cells at G2/M phase by RNAse A/PI-staining based flow cytometric analysis; format: functional; conditions: dose 25-100 nM
[19] = Toxicity in BALB/c mouse implanted with human A549/T cell assessed as red blood cell distribution width-cell volume at 30 mg/kg, ip administered every 2 days and measured after 2 weeks (reference value: 25fL); format: organism-based; conditions: in vivo, 336 h
[20] = Resistance index, ratio of IC50 for human A549/T cells to IC50 for human A549 cells; format: functional
Tubulin (Homo sapiens) [21] = molecular target: T1, Tubulin (Homo sapiens) (UniProt P68371+Q9H4B7+P0DPH7+P68366+Q13509+Q71U36+P04350+Q3ZCM7+P07437+P68363+Q9BQE3+Q6PEY2+Q13885+Q9BVA1+Q9BUF5); experiment: Disruption of microtubule network in human A549/T cell at 100 to 200 nM incubated for 24 hrs by immunofluorescence staining based confocal microscopy analysis; conditions: dose 100-200 nM
[22] = Toxicity in BALB/c mouse implanted with human A549/T cell assessed as MCH level at 15 mg/kg, ip administered every 2 days and measured after 2 weeks (reference value: 29.2 pg); format: organism-based; conditions: in vivo, 336 h
HCC827 = experiment: Antiproliferative activity against human HCC827 cells assessed as cell growth inhibition incubated for 48 hrs by MTT assay; format: functional, cell-based; conditions: HCC827, 48 h
A549/TR [23] = experiment: Antitumor activity against human A549/T cell xenografted in BALB/c mouse assessed as reduction in tumor growth at 15 mg/kg, ip administered every 2 days; format: functional, organism-based; conditions: time 2.0 day
[24] = Toxicity in BALB/c mouse implanted with human A549/T cell assessed as WBC count at 15 mg/kg, ip administered every 2 days and measured after 2 weeks (reference value: 1.3 10^9/L); format: organism-based; conditions: in vivo, 336 h
[25] = Toxicity in BALB/c mouse implanted with human A549/T cell assessed as change in body weight at 15 mg/kg, ip administered every 2 days; format: organism-based; conditions: in vivo, 48 h, time 2 day
[26] = Toxicity in BALB/c mouse implanted with human A549/T cell assessed as platelet count at 15 mg/kg, ip administered every 2 days and measured after 2 weeks (reference value: 539 […]); format: organism-based; conditions: in vivo, 336 h
[27] = Toxicity in BALB/c mouse implanted with human A549/T cell assessed as RBC count at 15 mg/kg, ip administered every 2 days and measured after 2 weeks (reference value: 7.92 10^12/L); format: organism-based; conditions: in vivo, 336 h
Tubulin (Homo sapiens) [28] = molecular target: T1, Tubulin (Homo sapiens); experiment: Disruption of microtubule network in human A549 cells at 50 to 100 nM incubated for 24 hrs by immunofluorescence staining based confocal microscopy analysis; format: cell-based; conditions: dose 50-100 nM

## COc1ccc(-c2cc(-c3ccc(OC)c(OC)c3OC)c3nc[nH]c3c2)cc1N
A549/TR [1]
  Activity: inactive
A549/TR [2]
  Activity: 22.22%
[3]
  Activity: Non-toxic
[4]
  Activity: 5.94 10^12/L
[5]
  Stability: Stable
A549/TR [6]
  inhibition: Dose-dependent-effect
NCI-H1299
  IC50: 63 nM
A549/TR [7]
  Activity: Active
[8]
  Activity: 50.7%
[9]
  Activity: 1.32 10^9/L
[10]
  CLint scaled: 23 mL/min/kg
A549 [11]
  IC50: 23 nM
[12]
  Activity: 1.42 10^9/L
[13]
  Activity: 23.4%
[14]
  Activity: 29.5%
[15]
  Activity: 55.2%
[16]
  inhibition at 48 h, 0.1 µM: 47%
[17]
  Activity: Non-toxic
A549 [18]
  Activity: Dose-dependent-effect
[19]
  Activity: 25 fL
[20]
  Ratio IC50: 2.47
Tubulin (Homo sapiens) [21]
  Activity: Active
[22]
  Activity: 28.9 pg
HCC827
  IC50: 46 nM
A549/TR [23]
  Activity: Active
[24]
  Activity: 2.8 10^9/L
[25]
  Activity: Non-toxic
[26]
  Activity: 505 10^9/L
[27]
  Activity: 7.43 10^12/L
Tubulin (Homo sapiens) [28]
  Activity: Active
